Measured values taken from US9624209B2, “Substituted phenylureas and phenylamides as vanilloid receptor ligands” (Gruenenthal GmbH, priority 2009, dated 2017).

What follows are molecules tested against T1, vanilloid receptor 1 (VR1/TRPV1 receptor) (Homo sapiens, UniProt Q8NER1) (assay: VR1/TRPV1 receptor affinity, capsaicin stimulus (human)). Conditions: @ 5 μM, Tables 8-12.
T1 construct: expressed in transfected cells; host or cells: CHO K1 cells (ECACC), stably transfected
Type: cell-based, human being
Set-up: key to (f) Ki (human being) [nM] Cap: result in words: AG=agonist; pAG=partial agonist; NE=no effect

T1 sequence (Q8NER1 whole entry): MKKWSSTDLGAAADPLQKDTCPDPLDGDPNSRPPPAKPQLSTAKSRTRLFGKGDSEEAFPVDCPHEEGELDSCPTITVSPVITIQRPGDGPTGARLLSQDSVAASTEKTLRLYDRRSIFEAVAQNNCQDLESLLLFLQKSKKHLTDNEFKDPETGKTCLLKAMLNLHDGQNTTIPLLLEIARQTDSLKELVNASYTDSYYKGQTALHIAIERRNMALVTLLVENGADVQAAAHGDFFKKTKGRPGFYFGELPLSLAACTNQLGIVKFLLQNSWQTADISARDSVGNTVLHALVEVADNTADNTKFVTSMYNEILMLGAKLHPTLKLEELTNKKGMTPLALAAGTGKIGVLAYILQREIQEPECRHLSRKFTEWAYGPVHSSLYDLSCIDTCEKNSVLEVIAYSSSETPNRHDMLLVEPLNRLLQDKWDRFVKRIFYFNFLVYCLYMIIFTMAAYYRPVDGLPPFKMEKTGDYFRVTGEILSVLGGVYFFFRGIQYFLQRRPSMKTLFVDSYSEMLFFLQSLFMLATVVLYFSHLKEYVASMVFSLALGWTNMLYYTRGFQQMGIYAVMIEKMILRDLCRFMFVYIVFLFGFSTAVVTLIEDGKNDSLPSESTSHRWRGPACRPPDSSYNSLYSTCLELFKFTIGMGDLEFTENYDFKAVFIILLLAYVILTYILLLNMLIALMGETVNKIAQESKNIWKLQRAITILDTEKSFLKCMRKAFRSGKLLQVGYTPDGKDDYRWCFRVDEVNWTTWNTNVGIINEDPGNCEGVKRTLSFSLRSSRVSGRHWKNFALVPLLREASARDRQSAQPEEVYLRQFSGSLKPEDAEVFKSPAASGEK

| Molecule | (f) Ki (human being) [nM] Cap: inhibition (as a percentage) [% @ 5 μM] |
| --- | --- |
| 4-[[[5-tert-Butyl-2-(3-chlorophenyl)-2H-pyrazol-3-yl]-methyl-carbamoyl]amino]-2-chloro-benzoic acid [Example E55] | 28 |

Same assay, conditions: Tables 8-12

| (f) Ki (human being) [nM] Cap: result in words | Molecule |
| --- | --- |
| AG | COc1c(F)cc(C(C)C(=O)NCc2cc(C(C)(C)C)nn2-c2ccc(F)c(Cl)c2)cc1F (centres unmarked) [Example A5, N-[[5-tert-Butyl-2-(3-chloro-4-fluoro-phenyl)-2H-pyrazol-3-yl]-methyl]-2-(3,5-difluoro-4-methoxy-phenyl)-propionamide] |
| AG | CC(C)(C)c1cc(CNC(=O)Nc2cc(F)c(O)c(F)c2)n(-c2cccc(Cl)c2)n1 [Example A11, 1-[[5-tert-Butyl-2-(3-chlorophenyl)-2H-pyrazol-3-yl]-methyl]-3-(3,5-difluoro-4-hydroxy-phenyl)-urea] |
| AG | COc1ccc(NC(=O)NCc2cc(C(C)(C)C)nn2-c2cccc(Cl)c2)cc1OC [Example A13, 1-[[5-tert-Butyl-2-(3-chlorophenyl)-2H-pyrazol-3-yl]-methyl]-3-(3,4-dimethoxyphenyl)-urea] |
| AG | COc1cc(NC(=O)NCc2cc(C(F)(F)F)nn2-c2cccc(Cl)c2)ccc1O [Example A15, 1-[[2-(3-Chlorophenyl)-5-(trifluoromethyl)-2H-pyrazol-3-yl]-methyl]-3-(4-hydroxy-3-methoxy-phenyl)-urea] |
| AG | COc1ccc(NC(=O)NCc2cc(C(F)(F)F)nn2-c2cccc(Cl)c2)cc1O [Example A16, 1-[[2-(3-Chlorophenyl)-5-(trifluoromethyl)-2H-pyrazol-3-yl]-methyl]-3-(3-hydroxy-4-methoxy-phenyl)-urea] |
| AG | COCCOc1ccc(NC(=O)NCc2cc(C(C)(C)C)nn2-c2cccc(Cl)c2)cc1F [Example A17, 1-[[5-tert-Butyl-2-(3-chlorophenyl)-2H-pyrazol-3-yl]-methyl]-3-[3-fluoro-4-(2-methoxy-ethoxy)-phenyl]-urea] |
| AG | CC(C)(C)c1cc(CNC(=O)Nc2ccc(OCC(O)CO)c(F)c2)n(-c2cccc(Cl)c2)n1 (centres unmarked) [Example A24, 1-[[5-tert-Butyl-2-(3-chlorophenyl)-2H-pyrazol-3-yl]-methyl]-3-[4-(2,3-dihydroxy-propoxy)-3-fluoro-phenyl]-urea] |
| AG | CC(C(=O)NCc1cc(C(C)(C)C)nn1-c1cccc(Cl)c1)c1ccc(CO)c(F)c1 (centres unmarked) [Example A32, N-[[5-tert-Butyl-2-(3-chlorophenyl)-2H-pyrazol-3-yl]-methyl]-2-[3-fluoro-4-(hydroxymethyl)-phenyl]-propionamide] |
| AG | CC(C(=O)NCc1cc(C(C)(C)C)nn1-c1cccc(F)c1)c1ccc(CO)c(F)c1 (centres unmarked) [Example A37, N-[[5-tert-Butyl-2-(3-fluorophenyl)-2H-pyrazol-3-yl]-methyl]-2-[3-fluoro-4-(hydroxymethyl)-phenyl]-propionamide] |
| AG | CC(C(=O)NCc1cc(C(C)(C)C)nn1-c1ccc(F)c(F)c1)c1ccc(CO)c(F)c1 (centres unmarked) [Example A39, N-[[5-tert-Butyl-2-(3,4-difluoro-phenyl)-2H-pyrazol-3-yl]-methyl]-2-[3-fluoro-4-(hydroxymethyl)-phenyl]-propionamide] |
| AG | CC(C(=O)NCc1cc(C(C)(C)C)nn1-c1ccc(F)c(Cl)c1)c1ccc(CO)c(F)c1 (centres unmarked) [Example A41, N-[[5-tert-Butyl-2-(3-chloro-4-fluoro-phenyl)-2H-pyrazol-3-yl]-methyl]-2-[3-fluoro-4-(hydroxymethyl)-phenyl]-propionamide] |
| AG | CC(C(=O)NCc1cc(C(C)(C)C)nn1-c1cccc(C(F)(F)F)c1)c1ccc(CO)c(F)c1 (centres unmarked) [Example A47, N-[[5-tert-Butyl-2-[3-(trifluoromethyl)phenyl]-2H-pyrazol-3-yl]-methyl]-2-[3-fluoro-4-(hydroxymethyl)-phenyl]-propionamide] |
| AG | CC(C(=O)NCc1cc(C(F)(F)F)nn1-c1cccc(C(F)(F)F)c1)c1ccc(CO)c(F)c1 (centres unmarked) [Example A48, 2-[3-Fluoro-4-(hydroxymethyl)-phenyl]-N-[[5-(trifluoromethyl)-2-[3-(trifluoromethyl)phenyl]-2H-pyrazol-3-yl]-methyl]-propionamide] |
| AG | COc1cc(C(C)C(=O)NCc2cc(C(C)(C)C)nn2-c2cccc(Cl)c2)ccc1CO (centres unmarked) [Example A49, N-[[5-tert-Butyl-2-(3-chlorophenyl)-2H-pyrazol-3-yl]-methyl]-2-[4-(hydroxymethyl)-3-methoxy-phenyl]-propionamide] |

Same assay, conditions: Tables 8-12, read-out: (f) Ki (human being) [nM] Cap

| Molecule | Ki [nM] |
| --- | --- |
| 4-[[[2-(3-Chlorophenyl)-5-(trifluoromethyl)-2H-pyrazol-3-yl]-methyl-carbamoyl]-methyl]-N-[4-(trifluoromethyl)-phenyl]-benzamide [Example E51] | 49 |
| 4-[[[2-(3-Chlorophenyl)-5-(trifluoromethyl)-2H-pyrazol-3-yl]-methyl-carbamoyl]-methyl]-N-phenyl-benzamide [Example E26] | 25 |
| 4-[[[5-tert-Butyl-2-(3-chlorophenyl)-2H-pyrazol-3-yl]-methyl-carbamoyl]-methyl]-2-fluoro-N-(4-fluorophenyl)-benzamide [Example E39] | 2 |
| 4-[[[5-tert-Butyl-2-(3-chlorophenyl)-2H-pyrazol-3-yl]-methyl-carbamoyl]-methyl]-N-(4-chlorophenyl)-benzamide [Example E30] | 3 |
| 4-[[[5-tert-Butyl-2-(3-chlorophenyl)-2H-pyrazol-3-yl]-methyl-carbamoyl]-methyl]-N-(4-fluorophenyl)-benzamide [Example E37] | 5 |
| 4-[[[5-tert-Butyl-2-(3-chlorophenyl)-2H-pyrazol-3-yl]-methyl-carbamoyl]-methyl]-N-[4-(trifluoromethyl)-phenyl]-benzamide [Example E50] | 12 |
| 4-[[[5-tert-Butyl-2-(3-chlorophenyl)-2H-pyrazol-3-yl]-methyl-carbamoyl]amino]-2-chloro-benzoic acid methyl ester [Example E60] | 19 |
| 4-[[[5-tert-Butyl-2-(3-chlorophenyl)-2H-pyrazol-3-yl]-methyl-carbamoyl]amino]-2-fluoro-N,N-dimethyl-benzamide [Example E12] | 62 |
| 4-[[[5-tert-Butyl-2-(3-chlorophenyl)-2H-pyrazol-3-yl]-methyl-carbamoyl]amino]-2-methoxy-benzamide [Example E7] | 66 |
| CC(C(=O)NCc1cc(C(F)(F)F)nn1-c1cccc(Cl)c1)c1ccc(CO)c(Cl)c1 (centres unmarked) [Example A36, 2-[3-Chloro-4-(hydroxymethyl)-phenyl]-N-[[2-(3-chlorophenyl)-5-(trifluoromethyl)-2H-pyrazol-3-yl]-methyl]-propionamide] | 0.3 |
| CC(C(=O)NCc1cc(C(F)(F)F)nn1-c1cccc(Cl)c1)c1cc(F)c(CO)c(F)c1 (centres unmarked) [Example A52, N-[[2-(3-Chlorophenyl)-5-(trifluoromethyl)-2H-pyrazol-3-yl]-methyl]-2-[3,5-difluoro-4-(hydroxymethyl)-phenyl]-propionamide] | 40 |
